Key:
[1] = Stability in human plasma assessed as compound remaining measured at 30 mins relative to control; assay type: ADME, cell-free; conditions: read-out: Stability
Rattus norvegicus [2] = assay: Inhibition of thrombosis in anteriovenous bypassed rat at 1 mg/kg relative to control; assay type: functional
[3] = Stability in human plasma assessed as compound remaining measured at 60 mins relative to control; assay type: ADME, cell-free; conditions: read-out: Stability
[4] = Stability in human plasma assessed as compound remaining measured at 5 mins relative to control; assay type: ADME, cell-free; conditions: read-out: Stability
[5] = Stability in human plasma assessed as compound remaining measured at 20 mins relative to control; assay type: ADME, cell-free; conditions: read-out: Stability
[6] = Stability in human plasma assessed as compound remaining measured at 120 mins relative to control; assay type: ADME, cell-free; conditions: read-out: Stability
[7] = Toxicity in beagle dog assessed as ALT level at 100 to 300 mg/kg/day oral gavage observed for 14 days; assay type: organism-based, Canis lupus familiaris; conditions: in vivo, 336 h, dose 100-300 mg/kg/day, time 14 day
Rattus norvegicus [8] = assay: Anti-platelet activity against ADP-induced platelet aggregation in rat assessed as inhibition of platelet aggregation at 1.5 mg/kg relative to control; assay type: functional
[9] = Toxicity in beagle dog assessed as abnormality in blood and biochemical index at 100 to 300 mg/kg/day oral gavage observed for 14 days; assay type: organism-based, Canis lupus familiaris; conditions: in vivo, 336 h, dose 100-300 mg/kg/day, time 14 day
[10] = Stability in human plasma assessed as compound remaining measured at 240 mins relative to control; assay type: ADME, cell-free; conditions: read-out: Stability
Rattus norvegicus [11] = species on record: Rattus norvegicus; assay: Inhibition of thrombosis in anteriovenous bypassed rat; assay type: functional
[12] = Toxicity in beagle dog assessed as increase in ALP at 100 mg/kg/day oral gavage observed for 14 days; assay type: organism-based, Canis lupus familiaris; conditions: in vivo, 336 h, time 14 day
[13] = Toxicity in beagle dog assessed as increase in liver weight at 100 mg/kg/day oral gavage observed for 14 days; assay type: organism-based, Canis lupus familiaris; conditions: in vivo, 336 h, time 14 day
[14] = Toxicity in beagle dog assessed as electrocardiogram at 2000 mg/kg oral gavage observed for 14 days; assay type: organism-based, Canis lupus familiaris; conditions: in vivo, 336 h, time 14 day
[15] = Toxicity in beagle dog assessed as death at 2000 mg/kg oral gavage observed for 14 days; assay type: organism-based, Canis lupus familiaris; conditions: in vivo, 336 h, time 14 day
[16] = Toxicity in beagle dog assessed as decrease in platelet aggregation at 100 mg/kg/day oral gavage observed for 14 days; assay type: organism-based, Canis lupus familiaris; conditions: in vivo, 336 h, time 14 day
[17] = Toxicity in beagle dog assessed as dilated pupil at 100 to 300 mg/kg/day oral gavage observed for 14 days; assay type: organism-based, Canis lupus familiaris; conditions: in vivo, 336 h, dose 100-300 mg/kg/day, time 14 day
[18] = Toxicity in beagle dog assessed as mydriasis at 100 mg/kg/day oral gavage observed for 14 days; assay type: organism-based, Canis lupus familiaris; conditions: in vivo, 336 h, time 14 day
[19] = Toxicity in beagle dog assessed as electrocardiogram at 100 to 300 mg/kg/day oral gavage observed for 14 days; assay type: organism-based, Canis lupus familiaris; conditions: in vivo, 336 h, dose 100-300 mg/kg/day, time 14 day
[20] = Stability in human plasma assessed as compound remaining measured at 90 mins relative to control; assay type: ADME, cell-free; conditions: read-out: Stability
[21] = Stability in human plasma assessed as compound remaining measured at 300 mins relative to control; assay type: ADME, cell-free; conditions: read-out: Stability
Rattus norvegicus [22] = assay: Inhibition of thrombosis in anteriovenous bypassed rat at 10 mg/kg relative to control; assay type: functional
[23] = Toxicity in beagle dog assessed as emesis at 100 mg/kg/day oral gavage observed for 14 days; assay type: organism-based, Canis lupus familiaris; conditions: in vivo, 336 h, time 14 day
[24] = Toxicity in beagle dog assessed as ALP level at 100 to 300 mg/kg/day oral gavage observed for 14 days; assay type: organism-based, Canis lupus familiaris; conditions: in vivo, 336 h, dose 100-300 mg/kg/day, time 14 day
Rattus norvegicus [25] = assay: Inhibition of thrombosis in anteriovenous bypassed rat at 3 mg/kg relative to control; assay type: functional
[26] = Toxicity in rat assessed as bleeding time by measuring ratio of ED200 to ED50 ratio by tail cutting assay; conditions: in vivo
[27] = Stability in human plasma assessed as compound remaining measured at 360 mins relative to control; assay type: ADME, cell-free; conditions: read-out: Stability
[28] = Stability in human plasma assessed as compound remaining measured at 180 mins relative to control; assay type: ADME, cell-free; conditions: read-out: Stability
[29] = Stability in human plasma assessed as compound remaining measured at 45 mins relative to control; assay type: ADME, cell-free; conditions: read-out: Stability
[30] = Toxicity in beagle dog assessed as vomiting at 100 to 300 mg/kg/day oral gavage observed for 14 days; assay type: organism-based, Canis lupus familiaris; conditions: in vivo, 336 h, dose 100-300 mg/kg/day, time 14 day
Rattus norvegicus [31] = assay: Inhibition of thrombosis in anteriovenous bypassed rat at 30 mg/kg relative to control; assay type: functional
[32] = Stability in human plasma assessed as compound remaining measured at 10 mins relative to control; assay type: ADME, cell-free; conditions: read-out: Stability
[33] = Toxicity in beagle dog assessed as swelling of hepatocyte at 100 mg/kg/day oral gavage observed for 14 days; assay type: organism-based, Canis lupus familiaris; conditions: hepatocytes, 336 h, time 14 day
Rattus norvegicus [34] = assay: Anti-platelet activity against ADP-induced platelet aggregation in rat assessed as inhibition of platelet aggregation at 0.75 mg/kg relative to control; assay type: functional
[35] = Stability in human plasma assessed as compound remaining measured at 150 mins relative to control; assay type: ADME, cell-free; conditions: read-out: Stability
Rattus norvegicus [36] = assay: Anti-platelet activity against ADP-induced platelet aggregation in rat assessed as inhibition of platelet aggregation at 3 mg/kg relative to control; assay type: functional
[37] = Toxicity in rat assessed as bleeding time by tail cutting assay; conditions: in vivo
[38] = Toxicity in beagle dog assessed as abnormality in blood and biochemical index at 2000 mg/kg oral gavage observed for 14 days; assay type: organism-based, Canis lupus familiaris; conditions: in vivo, 336 h, time 14 day
Rattus norvegicus [39] = species on record: Rattus norvegicus; assay: Anti-platelet activity against ADP-induced platelet aggregation in rat assessed as inhibition of platelet aggregation; assay type: functional
Rattus norvegicus [40] = assay: Anti-platelet activity against ADP-induced platelet aggregation in rat assessed as inhibition of platelet aggregation at 4 mg/kg relative to control; assay type: functional
Rattus norvegicus [41] = assay: Anti-platelet activity against ADP-induced platelet aggregation in rat assessed as inhibition of platelet aggregation at 0.5 mg/kg relative to control; assay type: functional
Rattus norvegicus [42] = assay: Anti-platelet activity against ADP-induced platelet aggregation in rat assessed as inhibition of platelet aggregation at 2 mg/kg relative to control; assay type: functional
Rattus norvegicus [43] = assay: Anti-platelet activity against ADP-induced platelet aggregation in rat assessed as inhibition of platelet aggregation at 1 mg/kg relative to control; assay type: functional
Rattus norvegicus [44] = assay: Anti-platelet activity against ADP-induced platelet aggregation in rat assessed as inhibition of platelet aggregation at 8 mg/kg relative to control; assay type: functional

`C/C=C/C=C/C(=O)Oc1cc2c(s1)CCN([C@H](C(=O)OC)c1ccccc1Cl)C2` gave a remaining at 0.5 h [1] of 86.6%, an inhibition in vivo at 1 mg/kg (Rattus norvegicus [2]) of 36.5% and a remaining at 1 h [3] of 76.8%. The remaining at 5 min [4] was 93.5%, the remaining at 20 min [5] was 97.1% and the remaining at 2 h [6] was 62.9%. The Activity [7] was “Non-Toxic”, the inhibition in vivo at 1.5 mg/kg (Rattus norvegicus [8]) was 50.8% and the Activity [9] was “Non-Toxic”. The remaining at 4 h [10] was 30%, the ED50 (Rattus norvegicus [11]) was 11.8 mg/kg and the Activity [12] was “Toxic”. For the same compound, the Activity [13] was “Toxic”, the Activity [14] was “Non-Toxic” and the Activity [15] was “Non-Toxic”. For the same compound, the Activity [16] was “Toxic”, the Activity [17] was “Non-Toxic” and the Activity [18] was “Toxic”. For the same compound, the Activity [19] was “Non-Toxic”, the remaining at 1.5 h [20] was 63.8% and the remaining at 5 h [21] was 20.9%. The inhibition in vivo at 10 mg/kg (Rattus norvegicus [22]) was 52.1%, the Activity [23] was “Toxic” and the Activity [24] was “Non-Toxic”. The inhibition in vivo at 3 mg/kg (Rattus norvegicus [25]) was 40.3%, the selectivity ratio [26] was 0.52 and the remaining at 6 h [27] was 14.8%. The remaining at 3 h [28] was 43%, the remaining at 0.75 h [29] was 83.9% and the Activity [30] was “Non-Toxic”. For the same compound, the inhibition in vivo at 30 mg/kg (Rattus norvegicus [31]) was 68.6%, the remaining at 10 min [32] was 92.8% and the Activity [33] was “Toxic”. It also gave an inhibition in vivo at 0.75 mg/kg (Rattus norvegicus [34]) of 7%, a remaining at 2.5 h [35] of 46.7% and an inhibition in vivo at 3 mg/kg (Rattus norvegicus [36]) of 85.8%. For the same compound, the ED200 [37] was 0.822 mg/kg and the Activity [38] was “Non-Toxic”.
`CC/C=C/C(=O)Oc1cc2c(s1)CCN([C@H](C(=O)OC)c1ccccc1Cl)C2` showed an ED50 (Rattus norvegicus [39]) of 1.23 mg/kg, an inhibition in vivo at 4 mg/kg (Rattus norvegicus [40]) of 78.4% and an inhibition in vivo at 0.5 mg/kg (Rattus norvegicus [41]) of 26.2%. It also gave an inhibition in vivo at 2 mg/kg (Rattus norvegicus [42]) of 62.9%, an inhibition in vivo at 1 mg/kg (Rattus norvegicus [43]) of 38.2% and an inhibition in vivo at 8 mg/kg (Rattus norvegicus [44]) of 100%.
In the case of `C/C=C/C(=O)Oc1cc2c(s1)CCN([C@H](C(=O)OC)c1ccccc1Cl)C2`, the remaining at 0.5 h [1] is reported as 44.7%, the inhibition in vivo at 1 mg/kg (Rattus norvegicus [2]) is reported as 18.3% and the remaining at 1 h [3] is reported as 18.3%. The remaining at 5 min [4] was 91.7%, the remaining at 20 min [5] was 60.5% and the remaining at 2 h [6] was 1.7%. For the same compound, the Activity [7] was “Non-Toxic”, the Activity [9] was “Non-Toxic” and the remaining at 4 h [10] was 0%. For the same compound, the ED50 (Rattus norvegicus [11]) was 11.8 mg/kg, the Activity [12] was “Toxic” and the Activity [13] was “Toxic”. The Activity [14] was “Non-Toxic”, the Activity [15] was “Non-Toxic” and the Activity [16] was “Toxic”. For the same compound, the Activity [17] was “Non-Toxic”, the Activity [18] was “Toxic” and the Activity [19] was “Non-Toxic”. For the same compound, the remaining at 1.5 h [20] was 5.49%, the remaining at 5 h [21] was 0% and the inhibition in vivo at 10 mg/kg (Rattus norvegicus [22]) was 56%. The Activity [23] was “Toxic”, the Activity [24] was “Non-Toxic” and the inhibition in vivo at 3 mg/kg (Rattus norvegicus [25]) was 43.2%. For the same compound, the selectivity ratio [26] was 1.97, the remaining at 6 h [27] was 0% and the remaining at 3 h [28] was 0.231%. For the same compound, the remaining at 0.75 h [29] was 28%, the Activity [30] was “Non-Toxic” and the inhibition in vivo at 30 mg/kg (Rattus norvegicus [31]) was 64.2%. For the same compound, the remaining at 10 min [32] was 82.3%, the Activity [33] was “Toxic” and the inhibition in vivo at 0.5 mg/kg (Rattus norvegicus [41]) was 22.4%. It also gave a remaining at 2.5 h [35] of 0.588%, an inhibition in vivo at 2 mg/kg (Rattus norvegicus [42]) of 77% and an inhibition in vivo at 1 mg/kg (Rattus norvegicus [43]) of 50.2%. The ED200 [37] was 1.977 mg/kg and the Activity [38] was “Non-Toxic”.
With `CCC/C=C/C(=O)Oc1cc2c(s1)CCN([C@H](C(=O)OC)c1ccccc1Cl)C2` the inhibition in vivo at 0.5 mg/kg (Rattus norvegicus [41]) was 19.5%, the inhibition in vivo at 2 mg/kg (Rattus norvegicus [42]) was 74.3% and the inhibition in vivo at 1 mg/kg (Rattus norvegicus [43]) was 52.8%.

— ChEMBL document CHEMBL5223113, “Several non-salt and solid thienopyridine derivatives as oral P2Y12 receptor inhibitors with good stability” (Bioorg Med Chem Lett, 2022)
